Results taken from patent publication EP0081425B1, “Pharmaceutical compositions having normolipemic properties and containing compounds of the n-substituted benzenesulfonamide type” (priority 1981, dated 1983).
Like-named read-outs stand apart in the source and are kept apart here.

Tested on: hyperlipidémie provoquée par l'administration de TRITON®
Assay: Triton test: hyperlipidemia induced by i.v. TRITON W.R. in fasted rats
Format: in vivo, rats WISTAR mâles
Details: for Cholestérol estérifié Score (par rapport au clofibrate compté pour 1) / Cholestérol total Score (par rapport au clofibrate compté pour 1) / Lipides totaux Score (par rapport au clofibrate compté pour 1) / Triglycérides Score (par rapport au clofibrate compté pour 1): ratio to clofibrate of the same series; for inhibition in vivo at 250 mg/kg: Rattus norvegicus, po, blood assayed 6 h and/or 24 h later
From the text: Dans une première série d'expériences, des produits ont été testés sur une hyperlipidémie provoquée par l'administration de TRITON® selon le protocole suivant.
Les essais ont été réalisés sur des groupes de cinq rats WISTAR mâles dont le poids varie de 150 à 175 g.
Pour effectuer ces essais, on provoque une hyperlipidémie chez les animaux, au moyen du produit commercialisé par la Société ROHM and HAAS sous le nom de TRITON® W. R.
On observe, sur cette hyperlipidémie, les effets obtenus par administration des substances actives selon l'invention.
Les essais sont réalisés comme suit : • les rats sont mis à jeûner pendant 18 heures, puis on administre le TRITON® W.R. par voie intraveineuse en solution aqueuse à 10 % à raison de 200 mg/kg ;
6 heures et/ou 24 heures plus tard, on effectue les dosages sur le sang de façon traditionnelle.
Dans la première colonne, on a indiqué le numéro du composé testé.
Dans la deuxième colonne, on a indiqué le nombre d'animaux qui ont été soumis au test.
Dans les quatre dernières colonnes, on a indiqué les résultats relatifs respectivement : • aux lipides totaux, • aux triglycérides, • au cholestérol total, • au cholestérol estérifié.
Dans chacune de ces colonnes, on indique : • a) le pourcentage de diminution par rapport au témoin TRITON; • b) le score par rapport au clofibrate de référence, c'est-à-dire le rapport de l'intensité de l'activité du produit testé vis-à-vis de celle,de l'activité au clofibrate comptée pour 1.

[1] = 250 mg/kg oral, given with TRITON W.R. 200 mg/kg i.v., read-out: Cholestérol estérifié % (pourcentage de diminution par rapport au témoin TRITON)
[2] = 250 mg/kg oral, given with TRITON W.R. 200 mg/kg i.v., read-out: Cholestérol total % (pourcentage de diminution par rapport au témoin TRITON)
[3] = 250 mg/kg oral, given with TRITON W.R. 200 mg/kg i.v., read-out: Triglycérides % (pourcentage de diminution par rapport au témoin TRITON)
[4] = read-out: Lipides totaux % (pourcentage de diminution par rapport au témoin TRITON), 250 mg/kg oral, given with TRITON W.R. 200 mg/kg i.v.

Compound	Cholestérol estérifié Score (par rapport au clofibrate compté pour 1) (250 mg/kg oral)	inhibition in vivo at 250 mg/kg [1]	inhibition in vivo at 250 mg/kg [2]	inhibition in vivo at 250 mg/kg [3]	Cholestérol total Score (par rapport au clofibrate compté pour 1) (250 mg/kg oral)	Lipides totaux Score (par rapport au clofibrate compté pour 1) (250 mg/kg oral)	inhibition in vivo at 250 mg/kg [4]	Triglycérides Score (par rapport au clofibrate compté pour 1) (250 mg/kg oral)
COc1cc(N)ccc1S(=O)(=O)NCCO [compound 278]	0,65	22%	0%	4.5%	–	–	–	–
COc1cc(N)c(Cl)cc1S(=O)(=O)NCC(C)O (stereo not shown) [Composé n° 323]	1,44	62.9%	39.2%	53%	4,26	1,23	55.2%	–
CCC(CO)NS(=O)(=O)c1cc(Cl)ccc1OC (stereo not shown) [Composé n° 311]	–	0%	0%	0%	–	0,69	17.6%	–
CCC(CO)NS(=O)(=O)c1cc(Cl)c(N)cc1OC (stereo not shown) [compound 317]	0,52	25.4%	1.6%	0%	0,17	3,11	42.9%	–
COc1cc(N)ccc1S(=O)(=O)NCC(C)O (stereo not shown) [compound 320]	0,34	16.7%	15.3%	66.1%	1,61	1,48	20.5%	0,91
CCC(CO)NS(=O)(=O)c1ccc([N+](=O)[O-])cc1OC (stereo not shown) [compound 312]	–	54.1%	55.1%	0%	–	1,79	45.4%	–
CCC(CO)NS(=O)(=O)c1cc([N+](=O)[O-])ccc1OC (stereo not shown) [compound 314]	–	44%	42.1%	1.2%	–	1,02	25.9%	0,04
COc1cc([N+](=O)[O-])ccc1S(=O)(=O)NCCO [compound 277]	0,08	2.9%	3.2%	19.7%	0,18	–	0%	0,38
COc1cc(N)ccc1S(=O)(=O)N(C)CCO [compound 326]	0,67	29%	3.8%	20.3%	0,41	0,71	31.9%	–
COc1cc([N+](=O)[O-])c(Cl)cc1S(=O)(=O)NCC(C)O (stereo not shown) [compound 322, chloro-5 N-(hydroxy-2 propyl) méthoxy-2 nitro-4 benzènesulfonamide]	0,27	13.1%	7.9%	73.4%	0,83	3,15	43.5%	1,02
CCC(CO)NS(=O)(=O)c1cc(N)ccc1OC (stereo not shown) [Composé n° 315]	–	0.8%	17.4%	38.1%	1,83	3,61	49.8%	0,53
COc1cc([N+](=O)[O-])ccc1S(=O)(=O)NCC(C)O (stereo not shown) [compound 319]	0,33	16.4%	1.6%	56.5%	0,17	1,55	21.4%	0,78
